Tests used:
[1] = Rat pharmacokinetics: IV infusion 1 mg/kg, then PO 5 mg/kg; blood and urine by LC-MS/MS; type: in vivo, Male Wistar Han rats; conditions: for % F / bioavailability: oral bioavailability, ratio of dose-normalised AUC PO (5 mg/kg) and IV infusion (1 mg/kg); for Ue % po: percentage of oral dose (5 mg/kg) eliminated unchanged in urine; for bioavailability: male, Wistar Han; for bioavailability / AUC: whole blood; for AUC: area under blood concentration-time profile, PO 5 mg/kg, male Wistar Han rats, n = 3
Text: General Assays for Obtaining AUC Oral h*μm, % F, and Ue % PO Values
Male Wistar Han rats were purchased from Vital River Laboratory Animal Technology Co. Ltd (Beijing, China). The animals were approx. 6-8 weeks old with body weights of 200-300 g on the dosing date. The animals were housed in a 12-hour light/12-hour dark cycle environment and had free access to food and water. All animals were fed prior to dosing. Studies were approved by the Pharmaron Institutional Animal Care and Use Committee (IACUC).
Test article was administered as an intravenous infusion for 1 hour (1 mg/kg) at 5 mL/kg/h. After 48 h, animals received a single oral dose (5 mg/kg, free form) at a dose volume of 10 mL/kg, respectively. Blood samples were collected at various time points after IV infusion and PO administrations. Urine samples were collected at various time points after IV infusion and PO administrations.
Test article was dissolved in DMSO with vortexing and sonification to obtain a stock solution. An aliquot of the stock solution was mixed with 10% HP-β-CD in saline with vortexing to obtain a solution with concentration at 0.2 mg/mL of test article.
Test article was added into 1% Methyl Cellulose with vortexing and sonication to obtain a homogeneous suspension with concentration at 0.5 mg/mL of test article.
For IV infusion (1 mg/kg) administration, blood samples were collected from each animal at 0, 0.25, 0.5, 0.75, 1, 1.08, 1.25, 1.5, 1.75, 2, 3, 5, 8, 12, 24 hour post-dose.
For PO (5 mg/kg) administration, blood samples were collected from each animal at 0, 0.25, 0.5, 1, 1.5, 2, 3, 4, 6, 8, 12, 24 hour post-dose.
Blood samples (50 μL) were collected from each animal via jugular vein. These blood samples were placed into tubes containing K2EDTA. Whole blood was mixed with same volume of water and inverted several times. The blood samples were stored at −75±15° C. until analysis.
For IV infusion (1 mg/kg) administration, urine samples were collected from each animal at 0-4, 4-8, 8-12, 12-24 hour post-dose.
For PO (5 mg/kg) administration, urine samples were collected from each animal at 0-4, 4-8, 8-12, 12-24 hour post-dose.
Urine samples were collected continuously into containers maintained over dry ice at the intervals outlined below and stored at −80° C. prior to analysis.
55 μL of standards, 55 μL of QC samples or 55 μL of unknown samples (50 μL of blood or urine with 5 μL 50% acetonitrile) were mixed to 200 μL of acetonitrile containing IS (dexamethasone) to precipitate proteins. Then the samples were vortexed for 30 sec. After centrifugation at 4° C., 4700 rpm for 30 min, and 5 μL of the supernatant was injected into the LC-MS/MS system for quantitative analysis.
Test article blood and urine concentrations for each animal following IV infusion at 1 mg/kg and PO at 5 mg/kg were used to calculate pharmacokinetic parameters by employing a non-compartmental analysis (Phoenix™ WinNonlin® 7.0). The linear trapezoidal algorithm was used for AUC calculation.

FimH = biological target: T1, FimH (Escherichia coli, UniProt Q1R2J4); type: cell-based; conditions: concentration reducing bacterial agglutination of guinea pig red blood cells by greater than 90%; UTI89 bacteria;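 further: concentration in nM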
T1 construct: endogenous in cells; host or cells: E. coli UTI89 whole bacteria, agglutinating guinea pig red blood cells
Experimental: Hemagglutination Inhibition Assay (HAI)
The hemagglutination inhibition (HAI) assay was performed with UTI89 bacteria and guinea pig red blood cells, as previously described (S. J. Hultgren, W. R. Schwan, A. J. Schaeffer, J. L. Duncan Infect. Immun. 1986, 54, 613-620 and Jarvis, C.; Han, Z.; Kalas, V.; Klein, R.; Pinkner, J. S.; Ford, B.; Binkley, J.; Cusumano, C. K.; Cusumano, Z.; Mydock-McGrane, L.; Hultgren, S. J.; Janetka, J. W., ChemMedChem 2016, 11, 367-373).

Row | SMILES | HAI titer EC > 90 (FimH) | also measured
1 | OC[C@H]1O[C@H]([C@H](O)c2c(F)cc(-c3cc(F)cc(F)c3)cc2C(F)(F)F)[C@@H](O)[C@@H](O)[C@@H]1O [Example 32] | “++++” (<50 “++++”) | % F [1]: “++” (10 <= x <= 30%); Ue % po [1]: “++” (0.5 <= x <= 5%)
2 | Cc1cc(-c2cc(F)c(C)c(F)c2)ccc1[C@@H](O)[C@H]1O[C@H](CO)[C@@H](O)[C@H](O)[C@@H]1O [Example 1, (2R,3S,4S,5S,6R)-2-((R)-(3′,5′-Difluoro-3,4′-dimethyl-[1,1′-biphenyl]-4-yl)(hydroxy)methyl)-6-(hydroxymethyl)tetrahydro-2H-pyran-3,4,5-triol] | “++++” (<50 “++++”) | bioavailability [1]: 10 to 30%; Ue % po [1]: “++” (0.5 <= x <= 5%); AUC [1]: < 0.5 µM·h
3 | Cc1cc(-c2cc(C(F)(F)F)cc(C(F)(F)F)c2)ccc1[C@@H](O)[C@H]1O[C@H](CO)[C@@H](O)[C@H](O)[C@@H]1O [Example 74] | “++++” (<50 “++++”) | % F [1]: “++” (10 <= x <= 30%); Ue % po [1]: “+” (<0.5%)
4 | Cc1cc(-c2cc(F)cc(C(F)(F)F)c2)ccc1[C@@H](O)[C@H]1O[C@H](CO)[C@@H](O)[C@H](O)[C@@H]1O [Example 6, (2R,3S,4S,5S,6R)-2-((R)-(3′-Fluoro-3-methyl-5′-(trifluoromethyl)-[1,1′-biphenyl]-4-yl)(hydroxy)methyl)-6-(hydroxymethyl)tetrahydro-2H-pyran-3,4,5-triol] | “++++” (<50 “++++”) | bioavailability [1]: 10 to 30%; Ue % po [1]: “++” (0.5 <= x <= 5%); AUC [1]: < 0.5 µM·h
5 | Cc1cc(-c2ccc(CN(C)C)c(F)c2)ccc1[C@@H](O)[C@H]1O[C@H](CO)[C@@H](O)[C@H](O)[C@@H]1O [Example 83] | “++++” (<50 “++++”) | 
6 | Cc1cc(-c2ccc([C@@H](O)[C@H]3O[C@H](CO)[C@@H](O)[C@H](O)[C@@H]3O)c(C)c2)cc(C(F)(F)F)c1 [Example 68] | “++++” (<50 “++++”) | 
7 | COc1cc(F)cc(-c2ccc([C@@H](O)[C@H]3O[C@H](CO)[C@@H](O)[C@H](O)[C@@H]3O)c(C(F)(F)F)c2)c1 [Example 58] | “++++” (<50 “++++”) | 
8 | Cc1cc(-c2ccc(C(F)(F)F)c(Cl)c2)ccc1[C@@H](O)[C@H]1O[C@H](CO)[C@@H](O)[C@H](O)[C@@H]1O [Example 41] | “++++” (<50 “++++”) | 
9 | COc1cc(-c2ccc([C@@H](O)[C@H]3O[C@H](CO)[C@@H](O)[C@H](O)[C@@H]3O)c(C)c2)cc(F)c1C(F)(F)F [Example 87] | “++++” (<50 “++++”) | 
10 | Cc1cc(-c2ccc(F)c(F)c2)ccc1[C@@H](O)[C@H]1O[C@H](CO)[C@@H](O)[C@H](O)[C@@H]1O [Example 23] | “+++” (50-200 “+++”) | 
11 | Cc1cc(-c2cc(Cl)c(F)cc2F)ccc1[C@@H](O)[C@H]1O[C@H](CO)[C@@H](O)[C@H](O)[C@@H]1O [Example 48] | “+++” (50-200 “+++”) | 
12 | COc1cc(Cl)c(Cl)cc1-c1ccc([C@@H](O)[C@H]2O[C@H](CO)[C@@H](O)[C@H](O)[C@@H]2O)c(C)c1 [Example 20] | “++++” (<50 “++++”) | 
13 | Cc1cc(-c2cc(F)cc(C(F)F)c2)ccc1[C@@H](O)[C@H]1O[C@H](CO)[C@@H](O)[C@H](O)[C@@H]1O [Example 85] | “++++” (<50 “++++”) | 
14 | Cc1cc(-c2cc(F)cc(F)c2F)ccc1[C@@H](O)[C@H]1O[C@H](CO)[C@@H](O)[C@H](O)[C@@H]1O [Example 70] | “++++” (<50 “++++”) | 
15 | COc1cc(-c2ccc([C@@H](O)[C@H]3O[C@H](CO)[C@@H](O)[C@H](O)[C@@H]3O)c(C)c2)cc(F)c1C [Example 63] | “++++” (<50 “++++”) | 
16 | Cc1cc(-c2cc(F)c(C(C)O)c(F)c2)ccc1[C@@H](O)[C@H]1O[C@H](CO)[C@@H](O)[C@H](O)[C@@H]1O (single isomer, unassigned) [Example 107] | “++++” (<50 “++++”) | 
17 | OC[C@H]1O[C@H]([C@H](O)c2ccc(-c3cc(F)cc(C(F)(F)F)c3)cc2C(F)(F)F)[C@@H](O)[C@@H](O)[C@@H]1O [Example 59] | “++++” (<50 “++++”) | 

Row | SMILES | HAI titer EC > 90 (FimH) | also measured
18 | Cc1cc(F)cc(-c2ccc([C@@H](O)[C@H]3O[C@H](CO)[C@@H](O)[C@H](O)[C@@H]3O)c(C)c2)c1 [Example 60] | “+++” (50-200 “+++”) | 
19 | Cc1cc(-c2cc(Cl)c(Cl)cc2O)ccc1[C@@H](O)[C@H]1O[C@H](CO)[C@@H](O)[C@H](O)[C@@H]1O [Example 19] | “++++” (<50 “++++”) | 
20 | Cc1cc(-c2ccc(C(F)(F)F)c(C(F)(F)F)c2)ccc1[C@@H](O)[C@H]1O[C@H](CO)[C@@H](O)[C@H](O)[C@@H]1O [Example 67] | “++++” (<50 “++++”) | 
21 | Cc1cc(-c2cc(F)c(Cl)cc2F)ccc1[C@@H](O)[C@H]1O[C@H](CO)[C@@H](O)[C@H](O)[C@@H]1O [Example 47] | “++++” (<50 “++++”) | 
22 | Cc1cc(-c2ccc(OC(F)(F)F)c(F)c2)ccc1[C@@H](O)[C@H]1O[C@H](CO)[C@@H](O)[C@H](O)[C@@H]1O [Example 28] | “+” (>1000 “+”) | 
23 | Cc1cc(-c2cc(F)ccc2F)ccc1[C@@H](O)[C@H]1O[C@H](CO)[C@@H](O)[C@H](O)[C@@H]1O [Example 17] | “+++” (50-200 “+++”) | 
24 | Cc1cc(-c2cccc(C(F)(F)F)c2)ccc1[C@@H](O)[C@H]1O[C@H](CO)[C@@H](O)[C@H](O)[C@@H]1O [Example 75] | “+++” (50-200 “+++”) | 
25 | COc1cc(-c2ccc([C@@H](O)[C@H]3O[C@H](CO)[C@@H](O)[C@H](O)[C@@H]3O)c(C)c2)ccc1C(F)(F)F [Example 76] | “++++” (<50 “++++”) | 
26 | Cc1cc(-c2cc(F)cc(F)c2)cc(F)c1[C@@H](O)[C@H]1O[C@H](CO)[C@@H](O)[C@H](O)[C@@H]1O [Example 37] | “++++” (<50 “++++”) | 
27 | COc1cc(-c2ccc([C@@H](O)[C@H]3O[C@H](CO)[C@@H](O)[C@H](O)[C@@H]3O)c(C)c2)cc(C(F)(F)F)c1F [Example 106] | “++++” (<50 “++++”) | 
28 | Cc1cc(-c2cc(F)cc(C3CC3)c2)ccc1[C@@H](O)[C@H]1O[C@H](CO)[C@@H](O)[C@H](O)[C@@H]1O [Example 62] | “+++” (50-200 “+++”) | 
29 | OC[C@H]1O[C@H]([C@H](O)c2c(F)cc(-c3cc(F)cc(F)c3)cc2Cl)[C@@H](O)[C@@H](O)[C@@H]1O [Example 52] | “+++” (50-200 “+++”) | 
30 | Cc1cc(-c2cccc(F)c2F)ccc1[C@@H](O)[C@H]1O[C@H](CO)[C@@H](O)[C@H](O)[C@@H]1O [Example 18] | “+++” (50-200 “+++”) | 
31 | Cc1cc(-c2ccc([C@@H](O)[C@H]3O[C@H](CO)[C@@H](O)[C@H](O)[C@@H]3O)c(C)c2)cc(C(C)(C)C)c1 [Example 14] | “+++” (50-200 “+++”) | 
32 | COc1cc(F)c(-c2ccc([C@@H](O)[C@H]3O[C@H](CO)[C@@H](O)[C@H](O)[C@@H]3O)c(C)c2)cc1F [Example 82] | “++++” (<50 “++++”) | 
33 | Cc1cc(-c2cc(F)c(C(C)C)c(F)c2)ccc1[C@@H](O)[C@H]1O[C@H](CO)[C@@H](O)[C@H](O)[C@@H]1O [Example 89] | “++++” (<50 “++++”) | 
34 | Cc1cc(-c2cc(Cl)ccc2F)ccc1[C@@H](O)[C@H]1O[C@H](CO)[C@@H](O)[C@H](O)[C@@H]1O [Example 44] | “+++” (50-200 “+++”) | 

Reference: US12552824B2, “C-mannoside compounds useful for the treatment of urinary tract infections” (GLAXOSMITHKLINE INTELLECTUAL PROPERTY DEVELOPMENT LIMITED, priority 2018, dated 2026)
